Assay results reported in US12441730B2, “PRMT5 inhibitors” (Merck Sharp & Dohme LLC, priority 2019, dated 2025).
Read-outs that look alike come from different tables or passages of the source.

Assays:
[1] = target: T1, Full-length (FL)-PRMT5-MEP50 enzyme complex (Homo sapiens, UniProt O14744); assay: PRMT5-MEP50 Enzyme Methylation Assay (Version A); assay type: biochemical
T1 construct: Full-length (FL)-PRMT5-MEP50 enzyme complex (recombinant proteins from baculovirus-transfected Sf21 cells: FL-PRMT5; MW=73837 kDa and FL-MEP50; MW=38614); made in house; host or cells: baculovirus-transfected Sf21 cells
T1 sequence (O14744 whole entry): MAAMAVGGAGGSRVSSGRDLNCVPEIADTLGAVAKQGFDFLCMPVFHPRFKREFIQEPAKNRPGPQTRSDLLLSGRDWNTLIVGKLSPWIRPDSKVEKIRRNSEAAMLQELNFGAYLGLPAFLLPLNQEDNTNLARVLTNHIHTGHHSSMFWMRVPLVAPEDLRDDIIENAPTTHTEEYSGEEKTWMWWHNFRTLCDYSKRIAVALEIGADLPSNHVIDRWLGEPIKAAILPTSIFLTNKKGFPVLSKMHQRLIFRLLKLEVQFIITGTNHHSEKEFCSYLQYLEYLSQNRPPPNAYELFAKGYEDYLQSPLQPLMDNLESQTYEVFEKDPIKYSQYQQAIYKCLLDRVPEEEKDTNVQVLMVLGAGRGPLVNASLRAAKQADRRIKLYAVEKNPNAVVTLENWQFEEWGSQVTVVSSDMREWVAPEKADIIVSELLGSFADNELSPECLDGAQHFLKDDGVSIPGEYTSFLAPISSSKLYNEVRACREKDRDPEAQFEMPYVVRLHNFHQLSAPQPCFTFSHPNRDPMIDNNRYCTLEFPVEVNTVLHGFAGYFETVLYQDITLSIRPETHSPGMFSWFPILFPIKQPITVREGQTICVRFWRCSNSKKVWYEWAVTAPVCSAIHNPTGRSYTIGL
T1 sequence (Q9BQA1 whole entry partner): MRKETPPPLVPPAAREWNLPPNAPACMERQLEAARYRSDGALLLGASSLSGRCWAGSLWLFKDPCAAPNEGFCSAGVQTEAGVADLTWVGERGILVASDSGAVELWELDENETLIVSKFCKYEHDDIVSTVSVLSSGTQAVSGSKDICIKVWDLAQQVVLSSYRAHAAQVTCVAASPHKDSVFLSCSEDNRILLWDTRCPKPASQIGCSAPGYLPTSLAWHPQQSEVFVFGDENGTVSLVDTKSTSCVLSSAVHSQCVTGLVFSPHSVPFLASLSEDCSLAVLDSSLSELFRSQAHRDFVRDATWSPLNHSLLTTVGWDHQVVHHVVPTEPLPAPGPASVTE
Summary of the method: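 Compound was pre-incubated with enzyme for 60 min, then reacted 150 min at 37° C. at final 1.0 nM PRMT5-MEP50, 15 μM SAM and 75 nM biotinylated H4R3(Me1) peptide, in 50 mM Bicine pH 8.0 with 1% DMSO. SAMDI mass-spectrometric readout of Me1→Me2 conversion. EC50 from 4- or 7-parameter regression.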

[2] = system: symmetric dimethylation of arginine (SDMA) of PRMT5 substrates in MCF-7 cells; assay: PRMT5 Cell Target Engagement (TE) Assay; assay type: cell-based; details: 3 days treatment, SDMA high content imaging
Summary of the method: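 Readout is single-cell nuclear symmetric-dimethylarginine immunofluorescence (Alexa488), normalized to DMSO-treated cells. Compounds were applied to MCF-7 cells for 3 days at 37 °C, top concentration 10000 nM in 1:3 steps over ten points; curves fitted with 4-parameter robust fit.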

[3] = single EC50 = 4 parameter single site sigmoidal fit, EC50 1 = first value of 7 parameter biphasic fit, read-out: Enzyme Methylation Assay Version A (EC50 or EC50 1)
[4] = second value of 7 parameter biphasic fit, read-out: Enzyme Methylation Assay Version A (EC50 2)

## CO[C@H](C)c1cc(N(C)Cc2nonc2C)cn2cc(C(=O)N3CC[C@]4(Cc5ccccc5CN4)[C@H](O)C3)nc12 [Example 234, [(3R,3′R)-3′-hydroxy-1,4-dihydro-1′H,2H-spiro[isoquinoline-3,4′-piperidin]-1′-yl](8-[(1R)-1-methoxyethyl]-6-{methyl[(4-methyl-1,2,5-oxadiazol-3-yl)methyl]amino}imidazo[1,2-a]pyridin-2-yl)methanone]
[1]; [3]
  EC50: 6.82 nM
[2]; Homo sapiens, MCF7, 72 h
  EC50: 23.8 nM

## CC1CC(C(F)(F)F)Cn2cc(C(=O)N3CC[C@]4(Cc5ccccc5CN4)[C@H](O)C3)nc21 (single isomer, unassigned) [Example 166, ((3R,3′R)-3′-hydroxy-1,4-dihydro-2H-spiro[isoquinoline-3,4′-piperidin]-1′-yl)((6R,8R or 6S,8S)-8-methyl-6-(trifluoromethyl)-5,6,7,8-tetrahydroimidazo[1,2-a]pyridin-2-yl)methanone]
[1]; [4]
  EC50: 1640 nM
[1]; [3]
  EC50: 3.64 nM
[2]
  EC50: 33.7 nM

## Cn1nccc1-c1cnc2nc(C(=O)N3CC[C@]4(Cc5ccccc5CN4)[C@H](O)C3)cn2c1 [Example 78, [(3R,3′R)-3′-hydroxy-1,4-dihydro-1′H,2H-spiro[isoquinoline-3,4′-piperidin]-1′-yl][6-(1-methyl-1H-pyrazol-5-yl)imidazo[1,2-a]pyrimidin-2-yl]methanone]
[1]; [4]
  EC50: 76.7 nM
[1]; [3]
  EC50: 0.508 nM
[2]; Homo sapiens, MCF7, 72 h
  EC50: 45.3 nM

## O=C(c1cn2cc(Br)cc(I)c2n1)N1CC[C@]2(Cc3ccccc3CN2)[C@H](O)C1 [Example 7]
[1]; [4]
  EC50: 52.5 nM
[1]; [3]
  EC50: 0.639 nM
[2]; Homo sapiens, MCF7, 72 h
  EC50: 0.545 nM

## Cc1cn2cc(C(=O)N3CC[C@]4(Cc5ccccc5CN4)[C@H](O)C3)nc2c(Br)n1 [Example 138, (8-bromo-6-methylimidazo[1,2-a]pyrazin-2-yl)[(3R,3′R)-3′-hydroxy-1,4-dihydro-1′H,2H-spiro[isoquinoline-3,4′-piperidin]-1′-yl]methanone]
[1]; [3]
  EC50: 202 nM
[2]; Homo sapiens, MCF7, 72 h
  EC50: 322 nM

## COC(C)c1cc(Br)cn2cc(C(=O)N3CC[C@]4(Cc5cc(Cl)ccc5CN4)[C@H](O)C3)nc12 (single isomer, unassigned) [Example 225]
[1]; [4]
  EC50: 398 nM
[1]; [3]
  EC50: 2.1 nM
[2]; Homo sapiens, MCF7, 72 h
  EC50: 22.6 nM

## O=C(c1cn2cc(Br)ncc2n1)N1CC[C@]2(Cc3ccccc3CN2)[C@H](O)C1 [Example 42, (6-bromoimidazo[1,2-a]pyrazin-2-yl)((3R,3’R)-3′-hydroxy-1,4-dihydro-2H-spiro[isoquinoline-3,4′-piperidin]-1′-yl)methanone]
[1]; [4]
  EC50: 3240 nM
[1]; [3]
  EC50: 5.35 nM
[2]; Homo sapiens, MCF7, 72 h
  EC50: 24.9 nM

## O=C(c1cn2cc(Br)cc(Br)c2n1)N1CC[C@]2(Cc3ccccc3CN2)[C@H](O)C1 [Example 218, (6,8-dibromoimidazo[1,2-a]pyridin-2-yl)[(3R,3′R)-3′-hydroxy-1,4-dihydro-1′H,2H-spiro[isoquinoline-3,4′-piperidin]-1′-yl]methanone]
[1]; [3]
  EC50: 1.97 nM
[2]; Homo sapiens, MCF7, 72 h
  EC50: 4.07 nM

## CO[C@H](C)c1cc(N2CCC(n3ccnc3)C2)cn2cc(C(=O)N3CC[C@]4(Cc5ccccc5CN4)[C@H](O)C3)nc12 (stereo partly drawn) [Example 230, [(3R,3′R)-3′-hydroxy-1,4-dihydro-1′H,2H-spiro[isoquinoline-3,4′-piperidin]-1′-yl]{6-[3-(1H-imidazol-1-yl)-1-pyrrolidinyl]-8-[(1R)-1-methoxyethyl]imidazo[1,2-a]pyridin-2-yl}methanone]
[1]; [3]
  EC50: 5.38 nM
[2]; Homo sapiens, MCF7, 72 h
  EC50: 124 nM

## O=C(c1cn2c(n1)C(C1CCOC1)CC(C(F)(F)F)C2)N1CC[C@]2(Cc3ccccc3CN2)[C@H](O)C1 (single isomer, unassigned) [Example 162, ((3R,3′R)-3′-hydroxy-1,4-dihydro-2H-spiro[isoquinoline-3,4′-piperidin]-1′-yl)((6S,8S or 6R,8R)-8-((S or R)-tetrahydrofuran-3-yl)-6-(trifluoromethyl)-5,6,7,8-tetrahydroimidazo[1,2-a]pyridin-2-yl)methanone]
[1]; [4]
  EC50: 93300 nM
[1]; [3]
  EC50: 260 nM
[2]
  EC50: 7520 nM

## CC(O)c1cc(Br)cn2cc(C(=O)N3CC[C@]4(Cc5ccccc5CN4)[C@H](O)C3)nc12 (single isomer, unassigned) [Example 33, (6-bromo-8-((S or R)-1-hydroxyethyl)imidazo[1,2-a]pyridin-2-yl)((3R,3’R)-3′-hydroxy-1,4-dihydro-2H-spiro[isoquinoline-3,4′-piperidin]-1′-yl)methanone]
[1]; [4]
  EC50: 215 nM
[1]; [3]
  EC50: 0.565 nM
[2]
  EC50: 3.71 nM

## COC(C)c1cc(C)c2nc(C(=O)N3CC[C@]4(Cc5ccccc5CN4)[C@H](O)C3)cn2c1 (single isomer, unassigned) [Example 123]
[1]; [4]
  EC50: 182 nM
[1]; [3]
  EC50: 0.378 nM
[2]
  EC50: 11.8 nM

## COC(C)c1ccc2nc(C(=O)N3CC[C@]4(Cc5ccccc5CN4)[C@H](O)C3)cn2c1 (single isomer, unassigned) [Example 22, ((3R,3’R)-3′-hydroxy-1,4-dihydro-2H-spiro[isoquinoline-3,4′-piperidin]-1′-yl)(6-((S or R)-1-methoxyethyl)imidazo[1,2-a]pyridin-2-yl)methanone]
[1]; [4]
  EC50: 439 nM
[1]; [3]
  EC50: 0.674 nM
[2]
  EC50: 16.8 nM

## CCOc1nc(Br)cn2cc(C(=O)N3CC[C@]4(Cc5ccccc5CN4)[C@H](O)C3)nc12 [Example 10]
[1]; [4]
  EC50: 180 nM
[1]; [3]
  EC50: 0.815 nM
[2]; Homo sapiens, MCF7, 72 h
  EC50: 4.21 nM

## Cc1ccc(C(=O)N2CC[C@]3(Cc4ccccc4CN3)[C@H](O)C2)c(OCCO)n1 [Example 196, [(3R,3′R)-3′-hydroxy-1,4-dihydro-1′H,2H-spiro[isoquinoline-3,4′-piperidin]-1′-yl][2-(2-hydroxyethoxy)-6-methyl-3-pyridinyl]methanone]
[1]; [4]
  EC50: 6310 nM
[1]; [3]
  EC50: 15.3 nM
[2]; Homo sapiens, MCF7, 72 h
  EC50: 409 nM

## CN1CCn2cc(C(=O)N3CC[C@]4(Cc5ccccc5CN4)[C@H](O)C3)nc2C1 [Example 59, [(3R,3′R)-3′-hydroxy-1,4-dihydro-1′H,2H-spiro[isoquinoline-3,4′-piperidin]-1′-yl](7-methyl-5,6,7,8-tetrahydroimidazo[1,2-a]pyrazin-2-yl)methanone]
[1]; [3]
  EC50: 20.2 nM
[2]; Homo sapiens, MCF7, 72 h
  EC50: 6100 nM

## O=C(c1cnc2ncnn2c1)N1CC[C@]2(Cc3ccccc3CN2)[C@H](O)C1 [Example 195, [(3R,3′R)-3′-hydroxy-1,4-dihydro-1′H,2H-spiro[isoquinoline-3,4′-piperidin]-1′-yl]([1,2,d]triazolo[1,5-a]pyrimidin-6-yl)methanone]
[1]; [3]
  EC50: 15700 nM
[2]; Homo sapiens, MCF7, 72 h
  EC50: ≥ 10000 nM

## CC(C)Oc1nc(Br)cn2cc(C(=O)N3CC[C@]4(Cc5ccccc5CN4)[C@H](O)C3)nc12 [Example 11, {6-bromo-8-[(propan-2-yl)oxy]imidazo[1,2-a]pyrazin-2-yl}((3R,3’R)-3′-hydroxy-1,4-dihydro-1′H,2H-spiro[isoquinoline-3,4′-piperidin]-1′-yl)methanone]
[1]; [4]
  EC50: 88.6 nM
[1]; [3]
  EC50: 0.495 nM
[2]; Homo sapiens, MCF7, 72 h
  EC50: 4.2 nM

## COc1nccc(-c2cc([C@@H](C)OC)c3nc(C(=O)N4CC[C@]5(Cc6ccccc6CN5)[C@H](O)C4)cn3c2)n1 [Example 240, [(3R,3′R)-3′-hydroxy-1,4-dihydro-1′H,2H-spiro[isoquinoline-3,4′-piperidin]-1′-yl]{8-[(1R)-1-methoxyethyl]-6-(2-methoxy-4-pyrimidinyl)imidazo[1,2-a]pyridin-2-yl}methanone]
[1]; [4]
  EC50: 112 nM
[1]; [3]
  EC50: 0.376 nM
[2]; Homo sapiens, MCF7, 72 h
  EC50: 21 nM

## O=C(c1cn2cc(C(F)(F)F)cc(Cl)c2n1)N1CC[C@]2(Cc3ccccc3CN2)[C@H](O)C1 [Example 211, [8-chloro-6-(trifluoromethyl)imidazo[1,2-a]pyridin-2-yl][(3R,3′R)-3′-hydroxy-1,4-dihydro-1′H,2H-spiro[isoquinoline-3,4′-piperidin]-1′-yl]methanone]
[1]; [4]
  EC50: 71.6 nM
[1]; [3]
  EC50: 0.191 nM
[2]; Homo sapiens, MCF7, 72 h
  EC50: 7.99 nM

## Cc1ccc(C(=O)N2CC[C@]3(Cc4ccccc4CN3)[C@H](O)C2)c(Br)n1 [Example 197, (2-bromo-6-methyl-3-pyridinyl)[(3R,3′R)-3′-hydroxy-1,4-dihydro-1′H,2H-spiro[isoquinoline-3,4′-piperidin]-1′-yl]methanone]
[1]; [4]
  EC50: 16000 nM
[1]; [3]
  EC50: 14.2 nM
[2]; Homo sapiens, MCF7, 72 h
  EC50: 1310 nM

## CO[C@H](C)c1cc(-c2conc2C)cn2cc(C(=O)N3CC[C@]4(Cc5ccccc5CN4)[C@H](O)C3)nc12 [Example 246, [(3R,3′R)-3′-hydroxy-1,4-dihydro-1′H,2H-spiro[isoquinoline-3,4′-piperidin]-1′-yl]{8-[(1R)-1-methoxyethyl]-6-(3-methyl-4-isoxazolyl)imidazo[1,2-a]pyridin-2-yl}methanone]
[1]; [3]
  EC50: 0.977 nM
[2]; Homo sapiens, MCF7, 72 h
  EC50: 6.31 nM

## O=C(c1cn2cc(Br)cc(C(F)(F)F)c2n1)N1CC[C@]2(Cc3ccccc3CN2)[C@H](O)C1 [Example 55, [6-bromo-8-(trifluoromethyl)imidazo[1,2-a]pyridin-2-yl][(3R,3′R)-3′-hydroxy-1,4-dihydro-1′H,2H-spiro[isoquinoline-3,4′-piperidin]-1′-yl]methanone]
[1]; [4]
  EC50: 170 nM
[1]; [3]
  EC50: 0.817 nM
[2]; Homo sapiens, MCF7, 72 h
  EC50: 1.17 nM

## CO[C@H](C)c1cc(-c2sc(C)nc2C)cn2cc(C(=O)N3CC[C@]4(Cc5ccccc5CN4)[C@H](O)C3)nc12 [Example 244, {6-(2,4-dimethyl-1,3-thiazol-5-yl)-8-[(1R)-1-methoxyethyl]imidazo[1,2-a]pyridin-2-yl}[(3R,3′R)-3′-hydroxy-1,4-dihydro-1′H,2H-spiro[isoquinoline-3,4′-piperidin]-1′-yl]methanone]
[1]; [3]
  EC50: 0.675 nM
[2]; Homo sapiens, MCF7, 72 h
  EC50: 1.68 nM
